Assay results taken from patent US20090117192A1, “COMPOSITION FOR TRANSDERMAL ABSORPTION AND FORMULATION COMPRISING A POLYMERIC MATRIX FORMED THEREFROM” (priority 2007, published 2009).
Where two headings read alike, the source gives them in different places.

Assay: Meloxicam solubility enhancement test of sodium methoxide (saturation, HPLC)
Protocol: Meloxicam was mixed with an equivalent amount of sodium methoxide, and the mixture was dissolved to the saturation point in distilled water, methanol, ethylacetate, tetrahydrofuran or N-methylpyrrolidone. The resulting solution was subjected to high performance liquid chromatography to measure the meloxicam solubility.
Only Meloxicam without using sodium methoxide was dissolved to the saturation point in distilled water, methanol, ethylacetate, tetrahydrofuran or N-methylpyrrolidone, and then the resulting solution was subjected to high performance liquid chromatography to measure the meloxica solubility.

| Structure (SMILES) | Meloxicam solubility | Meloxicam solubility (saturation, HPLC) |
| --- | --- | --- |
| Cc1cnc(NC(=O)C2=C(O)c3ccccc3S(=O)(=O)N2C)s1 [Comparative Example 1, Meloxicam] | 60 µg/mL | – |
| Cc1cnc(NC(=O)C2=C(O)c3ccccc3S(=O)(=O)N2C)s1 [Comparative Example 2, Meloxicam] | 430 µg/mL | – |
| Cc1cnc(NC(=O)C2=C(O)c3ccccc3S(=O)(=O)N2C)s1 [Comparative Example 3, Meloxicam] | – | 1280 µg/mL |
| Cc1cnc(NC(=O)C2=C(O)c3ccccc3S(=O)(=O)N2C)s1 [Comparative Example 4, Meloxicam] | 21910 µg/mL | – |
| Cc1cnc(NC(=O)C2=C(O)c3ccccc3S(=O)(=O)N2C)s1 [Comparative Example 5, Meloxicam] | 92700 µg/mL | – |
